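Cells were grown in 96-well plates and exposed to each compound for 48 hours at five concentrations; endpoints were interpolated linearly between bracketing concentrations, or set to the highest concentration if not reached. At the GI50, growth is halved.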 Active and inactive are the calls of the source. Cut-off read from the data, not from the text of the source: active = GI50 up to about 1.1 µM and inactive = higher.
Experiments:
Assay in all cases: NCI-60 cell line screen, 48 h
SNB-75 = tested on: SNB-75
SK-OV-3 = tested on: SK-OV-3
SW-620 = tested on: SW-620
NCI-H460 = tested on: NCI-H460
HT-29 = tested on: HT-29
SF-268 = tested on: SF-268
HOP-92 = tested on: HOP-92
OVCAR-8 = tested on: OVCAR-8
HCT-15 = tested on: HCT-15
SK-MEL-28 = tested on: SK-MEL-28
EKVX = tested on: EKVX
K562 = tested on: K562
UO-31 = tested on: UO-31
HCT-116 = tested on: HCT-116
SF-539 = tested on: SF-539
SR = tested on: SR
A498 = tested on: A498
SK-MEL-2 = tested on: SK-MEL-2
OVCAR-5 = tested on: OVCAR-5

| SMILES | GI50 (SNB-75) | GI50 (SK-OV-3) | GI50 (SW-620) | GI50 (NCI-H460) | GI50 (HT-29) | GI50 (SF-268) | GI50 (HOP-92) | GI50 (OVCAR-8) | GI50 (HCT-15) | GI50 (SK-MEL-28) | GI50 (EKVX) | GI50 (K562) | GI50 (UO-31) | GI50 (HCT-116) | GI50 (SF-539) | GI50 (SR) | GI50 (A498) | GI50 (SK-MEL-2) | GI50 (OVCAR-5) |
| --- | --- | --- | --- | --- | --- | --- | --- | --- | --- | --- | --- | --- | --- | --- | --- | --- | --- | --- | --- |
| O=C(/C=C/c1ccccc1F)c1ccc([N+](=O)[O-])cc1 | 4.58 µM (inactive) | 56.5 µM (inactive) | 26.6 µM (inactive) | 30.8 µM (inactive) | 9.44 µM (inactive) | 27.2 µM (inactive) | 16.3 µM (inactive) | 25.8 µM (inactive) | 18.2 µM | 18.4 µM (inactive) | 38.5 µM (inactive) | 5.77 µM (inactive) | 11.6 µM (inactive) |  |  |  |  |  |  |
| Cc1ccc(S(=O)(=O)NCCCN(CCCNS(=O)(=O)c2ccc(C)cc2)S(=O)(=O)c2ccc(C)cc2)cc1 | > 100 µM (inactive) | > 100 µM (inactive) | > 100 µM (inactive) | > 100 µM (inactive) |  | > 100 µM (inactive) |  | > 100 µM (inactive) | > 100 µM | > 100 µM (inactive) |  | > 100 µM (inactive) | > 100 µM (inactive) | > 100 µM (inactive) | > 100 µM (inactive) | 69.7 µM (inactive) |  |  |  |
| Cc1nc(N)c(-c2ccccc2)s1 | 86.7 µM (inactive) | 38.3 µM (inactive) | 18.3 µM (inactive) | 51.1 µM (inactive) | > 58.3 µM (inactive) | > 100 µM (inactive) | > 100 µM (inactive) | > 76.7 µM (inactive) | 33.8 µM | > 100 µM (inactive) | > 94.6 µM (inactive) | > 70.5 µM (inactive) | > 100 µM (inactive) | 31.7 µM (inactive) | 70.8 µM (inactive) |  | > 32.4 µM (inactive) | 32.3 µM (inactive) | > 100 µM (inactive) |
| CCCN(CCC)C(=O)C(=O)c1c(N)[nH]n(-c2ccccc2)c1=O |  | > 100 µM (inactive) | > 100 µM (inactive) | > 100 µM (inactive) | > 100 µM (inactive) | > 100 µM (inactive) | > 100 µM (inactive) | > 100 µM (inactive) | > 100 µM |  | > 100 µM (inactive) | 43.5 µM (inactive) | > 100 µM (inactive) | > 100 µM (inactive) | > 100 µM (inactive) |  | > 100 µM (inactive) | > 100 µM (inactive) | > 100 µM (inactive) |
| CN/N=C(/c1nc2ccc([N+](=O)[O-])cc2nc1O)C(O)c1ccc(C(O)/C(=N\NC)c2nc3ccc([N+](=O)[O-])cc3nc2O)cc1 (stereo not drawn) | > 100 µM (inactive) | > 100 µM (inactive) | 82.8 µM (inactive) | 42.6 µM (inactive) | > 100 µM (inactive) | > 100 µM (inactive) | > 100 µM (inactive) | > 100 µM (inactive) | 29.5 µM | > 100 µM (inactive) | > 100 µM (inactive) | 32.5 µM (inactive) | 55 µM (inactive) | > 100 µM (inactive) | 42.6 µM (inactive) |  | > 100 µM (inactive) | 48 µM (inactive) | > 100 µM (inactive) |

From ChEMBL document CHEMBL1201862, “PubChem BioAssay data set” (2004)
